Results as given in PubChem BioAssay AID330 (DTP/NCI, 2004).
Values joined by “and” are separate entries in the source; they are usually repeats but may differ in a detail not shown here. Identical values can stand only once. Inconclusive results and toxic doses are left out. Rule for the calls: active = survival T/C of 150% or more; inactive = T/C below 125% in these data.

System: P388 leukemia ip, CD2F1 mice, survival T/C
Assay: NCI In Vivo Anticancer Drug Screen. Data for tumor model P388 Leukemia (intraperitoneal) in CD2F1 (CDF1) mice
Conditions: endpoint: median survival time, higher = longer survival
Method in brief: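 Mice carrying the transplanted tumor received test compound or vehicle. Survival was recorded in each group, and the value is the treated-group measurement divided by that of the vehicle-treated control group.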

[1] = dose: 50.0 mg/kg/injection, schedule: Q01DX005 (ip), vehicle: Klucel (hydroxypropylcellulose) (HPC)
[2] = dose: 100.0 mg/kg/injection, schedule: Q01DX005 (ip), vehicle: Klucel (hydroxypropylcellulose) (HPC)
[3] = dose: 200.0 mg/kg/injection, schedule: Q01DX005 (ip), vehicle: Klucel (hydroxypropylcellulose) (HPC)
[4] = dose: 50.0 mg/kg/injection, schedule: Q01DX009 (ip), vehicle: saline with Tween-80
[5] = dose: 100.0 mg/kg/injection, schedule: Q01DX009 (ip), vehicle: saline with Tween-80
[6] = dose: 200.0 mg/kg/injection, schedule: Q01DX009 (ip), vehicle: saline with Tween-80
[7] = dose: 400.0 mg/kg/injection, schedule: Q01DX009 (ip), vehicle: saline with Tween-80
[8] = dose: 100.0 mg/kg/injection, schedule: Q01DX001 (ip), vehicle: saline
[9] = dose: 200.0 mg/kg/injection, schedule: Q01DX001 (ip), vehicle: saline
[10] = dose: 400.0 mg/kg/injection, schedule: Q01DX001 (ip), vehicle: saline
[11] = dose: 60.0 mg/kg/injection, schedule: Q01DX005 (ip), vehicle: Klucel (hydroxypropylcellulose) (HPC)
[12] = dose: 120.0 mg/kg/injection, schedule: Q01DX005 (ip), vehicle: Klucel (hydroxypropylcellulose) (HPC)
[13] = dose: 25.0 mg/kg/injection, schedule: Q01DX009 (ip), vehicle: Klucel (hydroxypropylcellulose) (HPC)
[14] = dose: 50.0 mg/kg/injection, schedule: Q01DX005 (ip), vehicle: saline with Tween-80
[15] = dose: 100.0 mg/kg/injection, schedule: Q01DX005 (ip), vehicle: saline with Tween-80
[16] = dose: 25.0 mg/kg/injection, schedule: Q01DX009 (ip), vehicle: saline with Tween-80

Measured: T/C

COc1cc(C2SCC(=O)N2c2nnc(C)s2)cc(OC)c1OC (stereo not given)
inactive: [1] 97 % of control | [2] 89 % of control | [3] 89 % of control

CC1(C)OC1(C)C
inactive: [4] 100 % of control | [5] 104 % of control | [6] 102 % of control | [7] 111 % of control

OCCCCCCCCCCCCCC1C=CCC1 (stereo not given)
inactive: [8] 104 % of control | [9] 100 % of control | [10] 100 % of control

CSCCCNC(=O)c1csc(-c2csc(CCNC(C)=O)n2)n1
inactive: dose: 100.0 mg/kg/injection, schedule: Q04DX002 (ip), vehicle: saline with Tween-80 98 % of control | dose: 200.0 mg/kg/injection, schedule: Q04DX002 (ip), vehicle: saline with Tween-80 95 % of control | dose: 400.0 mg/kg/injection, schedule: Q04DX002 (ip), vehicle: saline with Tween-80 97 % of control

Brc1ccc2nc3ccccc3c(SCCCCCCSc3c4ccccc4nc4ccc(Br)cc34)c2c1
inactive: [11] 87 % of control and 93 % of control | [12] 89 % of control | dose: 240.0 mg/kg/injection, schedule: Q01DX005 (ip), vehicle: Klucel (hydroxypropylcellulose) (HPC) 91 % of control

COC(=O)CCC(N)C(=O)NC(Cc1ccccc1)C(=O)NC(C)C(=O)NC1C(O)OC(CO)C(O)C1O (stereo not given)
inactive: dose: 60.0 mg/kg/injection, schedule: Q01DX005 (ip), vehicle: saline 99 % of control | dose: 120.0 mg/kg/injection, schedule: Q01DX005 (ip), vehicle: saline 98 % of control | dose: 240.0 mg/kg/injection, schedule: Q01DX005 (ip), vehicle: saline 99 % of control

Cc1ccc(S(=O)(=O)N/N=C2/C=CC3(CC2)CC2C=CC3C2)cc1 (stereo not given)
inactive: dose: 50.0 mg/kg/injection, schedule: Q01DX001 (ip), vehicle: Klucel (hydroxypropylcellulose) (HPC) 91 % of control | dose: 100.0 mg/kg/injection, schedule: Q01DX001 (ip), vehicle: Klucel (hydroxypropylcellulose) (HPC) 89 % of control | dose: 200.0 mg/kg/injection, schedule: Q01DX001 (ip), vehicle: Klucel (hydroxypropylcellulose) (HPC) 101 % of control

CC/C(=C(\CC)c1ccc(OC)cc1)c1ccc(OC)cc1
inactive: [13] 107 % of control | dose: 50.0 mg/kg/injection, schedule: Q01DX009 (ip), vehicle: Klucel (hydroxypropylcellulose) (HPC) 105 % of control | [4] 102 % of control | dose: 100.0 mg/kg/injection, schedule: Q01DX009 (ip), vehicle: Klucel (hydroxypropylcellulose) (HPC) 106 % of control | [5] 98 % of control | dose: 200.0 mg/kg/injection, schedule: Q01DX009 (ip), vehicle: Klucel (hydroxypropylcellulose) (HPC) 97 % of control

Nc1nc2[nH]c(=O)c(=O)[nH]c2c(=O)[nH]1
inactive: dose: 50.0 mg/kg/injection, schedule: Q04DX003 (ip), vehicle: Klucel (hydroxypropylcellulose) (HPC) 96 % of control | dose: 100.0 mg/kg/injection, schedule: Q04DX003 (ip), vehicle: Klucel (hydroxypropylcellulose) (HPC) 97 % of control | dose: 200.0 mg/kg/injection, schedule: Q04DX003 (ip), vehicle: Klucel (hydroxypropylcellulose) (HPC) 94 % of control | dose: 400.0 mg/kg/injection, schedule: Q04DX003 (ip), vehicle: Klucel (hydroxypropylcellulose) (HPC) 105 % of control

O=C(O)C(O)C(O)C(O)C(O)c1nn[nH]n1 (stereo not given)
inactive: [8] 101 % of control | [9] 98 % of control | [10] 93 % of control

CC1(C)COCN(C2CCCCC2)C1
inactive: dose: 15.0 mg/kg/injection, schedule: Q01DX009 (ip), vehicle: saline with Tween-80 119 % of control | dose: 30.0 mg/kg/injection, schedule: Q01DX009 (ip), vehicle: saline with Tween-80 100 % of control | dose: 60.0 mg/kg/injection, schedule: Q01DX009 (ip), vehicle: saline with Tween-80 108 % of control

Cc1ccc(S(=O)(=O)NC(=O)NC(=S)c2cccs2)cc1
inactive: dose: 50.0 mg/kg/injection, schedule: Q01DX001 (ip), vehicle: saline with Tween-80 98 % of control | dose: 100.0 mg/kg/injection, schedule: Q01DX001 (ip), vehicle: saline with Tween-80 97 % of control | dose: 200.0 mg/kg/injection, schedule: Q01DX001 (ip), vehicle: saline with Tween-80 91 % of control

Cc1ccc(S(=O)(=O)N(Cl)Cl)cc1
inactive: dose: 6.25 mg/kg/injection, schedule: Q01DX009 (ip), vehicle: Klucel (hydroxypropylcellulose) (HPC) 111 % of control | dose: 12.5 mg/kg/injection, schedule: Q01DX009 (ip), vehicle: Klucel (hydroxypropylcellulose) (HPC) 99 % of control | [13] 108 % of control

COc1c2c(c(OC)c3c1C(=O)C(=O)C=C3O)OCO2
inactive: [11] 104 % of control | [12] 113 % of control

CC12Cc3cnoc3C=C1CCC1C2CCC2(C)C1CCC2(C)O (stereo not given)
inactive: [14] 93 % of control | [15] 86 % of control

COn1nnc2c([N+](=O)[O-])cccc21
inactive: dose: 12.5 mg/kg/injection, schedule: Q01DX009 (ip), vehicle: saline with Tween-80 100 % of control | [16] 94 % of control | [4] 98 % of control

O=c1[nH]c2cc(Cl)ccc2c(CCl)c1Cl
inactive: [16] 110 % of control | [4] 110 % of control

CCOc1ccc(NC2OC(CO)C(O)C(O)C2NC(C)=O)cc1 (stereo not given)
inactive: [14] 105 % of control | [15] 101 % of control | dose: 200.0 mg/kg/injection, schedule: Q01DX005 (ip), vehicle: saline with Tween-80 96 % of control

O=[N+]([O-])c1nccn1CC(O)CF (stereo not given)
inactive: dose: 86.4 mg/kg/injection, schedule: Q01DX005 (ip), vehicle: saline + Tween-80 + alcohol 104 % of control | dose: 144.0 mg/kg/injection, schedule: Q01DX005 (ip), vehicle: saline + Tween-80 + alcohol 89 % of control | dose: 216.0 mg/kg/injection, schedule: Q01DX001 (ip), vehicle: saline + Tween-80 + alcohol 100 % of control | dose: 216.0 mg/kg/injection, schedule: Q01DX001 (ip), vehicle: saline with Tween-80 100 % of control | dose: 240.0 mg/kg/injection, schedule: Q01DX005 (ip), vehicle: saline + Tween-80 + alcohol 103 % of control | dose: 360.0 mg/kg/injection, schedule: Q01DX001 (ip), vehicle: saline + Tween-80 + alcohol 104 % of control | dose: 360.0 mg/kg/injection, schedule: Q01DX001 (ip), vehicle: saline with Tween-80 104 % of control | dose: 600.0 mg/kg/injection, schedule: Q01DX001 (ip), vehicle: saline + Tween-80 + alcohol 101 % of control | dose: 600.0 mg/kg/injection, schedule: Q01DX001 (ip), vehicle: saline with Tween-80 101 % of control

CNC(=O)C1CCCCC1Br (stereo not given)
inactive: [1] 103 % of control | [2] 103 % of control | [3] 105 % of control

CC1(n2[nH]c(=O)n(-c3ccccc3)c2=O)Cn2c(=O)n(-c3ccccc3)c(=O)n2-c2ccccc21 (stereo not given)
inactive: [1] 101 % of control | [2] 96 % of control | [3] 108 % of control

CC(C)(c1ccc(OCC2CO2)cc1)c1ccc(OCC2CO2)cc1 (stereo not given)
inactive: [16] 103 % of control | [4] 103 % of control and 107 % of control | [5] 103 % of control | [6] 109 % of control | [7] 114 % of control

CN1CC(C(N)=O)=CC(C(N)=O)C1 (stereo not given)
inactive: dose: 25.0 mg/kg/injection, schedule: Q01DX005 (ip), vehicle: saline 97 % of control | dose: 50.0 mg/kg/injection, schedule: Q01DX005 (ip), vehicle: saline 96 % of control | dose: 100.0 mg/kg/injection, schedule: Q01DX005 (ip), vehicle: saline 113 % of control | dose: 200.0 mg/kg/injection, schedule: Q01DX005 (ip), vehicle: saline 111 % of control
